According to US11219214B2, “Benzosultams and analogues and their use as fungicides” (Bayer CropScience Aktiengesellschaft, priority 2016, dated 2022):
Like-named read-outs stand apart in the source and are kept apart here.

What was measured:
[1] = 0.1% aqueous formic acid and acetonitrile, gradient 10% to 95% acetonitrile
Procedure: In table 1a, the log P values were determined in accordance with EEC Directive 79/831 Annex V.A8 by HPLC (High Performance Liquid Chromatography) on a reversed-phase column (C 18), using the method described below:
Method C: temperature: 55° C.; mobile phases: 0.1% aqueous formic acid and acetonitrile; linear gradient from 10% acetonitrile to 95% acetonitrile.
If more than one Log P value is available within the same method, all the values are given and separated by “;”.

Leptnosphaeria nodorum = experiment: Example C: Leptnosphaeria nodorum in vitro cell test; format: cell-based; settings: 144 h, liquid culture, 6 days incubation, inhibition of fungal growth, read-out: Efficacy; for inhibition of growth at 20 ppm: 20 ppm of active ingredient
Procedure: Example C: Leptnosphaeria nodorum In Vitro Cell Test • Solvent: dimethyl sulfoxide (DMSO) • Culture medium: 14.6 g anhydrous D-glucose (VWR), 7.1 g Mycological Peptone (Oxoid), 1.4 g granulated Yeast Extract (Merck), QSP 1 liter • Inoculum: spore suspension Active ingredients were solubilized in DMSO and the solution used to prepare the required range of concentrations. […] A spore suspension of L. nodorum was prepared and diluted to the desired spore density. Active ingredients were evaluated for their ability to inhibit spore germination and mycelium growth in liquid culture assay. The compounds were added in the desired concentration to the culture medium with spores. After 6 days incubation, fungi-toxicity of compounds was determined by spectrometric measurement of mycelium growth. Inhibition of fungal growth was determined by comparing the absorbance values in wells containing the active ingredients with the absorbance in control wells without fungicides.

Pyricularia oryzae = experiment: microbe, parasite or virus in culture; format: cell-based; settings: 120 h, read-out: Efficacy, 20 ppm of active ingredient, liquid culture, 5 days incubation, inhibition of fungal growth
[2] = Method C: HPLC reversed-phase C 18, 55° C.

SMILES: N#Cc1cccc2c1CS(=O)(=O)N2 [III.05A]
- chromatographic logP ([1]; Method A: 40° C.): 1.08

SMILES: CC1C(C)(C)c2ccccc2N(c2cnc3ccccc3c2)S1(=O)=O (centres unmarked) [I.173, 3,4,4-trimethyl-1-(quinolin-3-yl)-3,4-dihydro-1H-2,1-benzothiazine 2,2-dioxide]
- inhibition of growth at 20 ppm (Leptnosphaeria nodorum): 90 to 100%
- chromatographic logP ([1]; Method C: 55° C.): 3.53
- inhibition of growth at 20 ppm (Pyricularia oryzae): 90 to 100%

SMILES: O=S1(=O)Cc2c(cccc2C(F)(F)F)N1 [III.02A]
- chromatographic logP ([1]; Method A: 40° C.): 1.99

SMILES: O=C1CS(=O)(=O)N(c2cnc3ccccc3c2)c2ccccc21 [I.159, 1-(quinolin-3-yl)-1H-2,1-benzothiazin-4(3H)-one 2,2-dioxide]
- chromatographic logP ([1]; Method C: 55° C.): 2.28

SMILES: Cc1ccc(F)c2ncc(I)cc12 [II.10A]
- chromatographic logP ([1]; Method A: 40° C.): 3.06

SMILES: O=S1(=O)Cc2c(F)cccc2N1 [III.01A]
- chromatographic logP ([1]; Method A: 40° C.): 1.34

SMILES: CC1(O)c2ccccc2N(c2cnc3ccccc3c2)S(=O)(=O)C1(C)C (centres unmarked) [I.213, 3,3,4-trimethyl-1-(quinolin-3-yl)-3,4-dihydro-1H-2,1-benzothiazin-4-ol 2,2-dioxide]
- inhibition of growth at 20 ppm (Leptnosphaeria nodorum): 80 to 89%
- chromatographic logP ([1]; Method C: 55° C.): 2.46
- chromatographic logP [1, 2]: 2.46
- inhibition of growth at 20 ppm (Pyricularia oryzae): 80 to 89%

SMILES: C=C1c2ccccc2N(c2cnc3c(F)c(F)ccc3c2)S(=O)(=O)C1(C)C [I.219, 1-(7,8-difluoroquinolin-3-yl)-3,3-dimethyl-4-methylene-3,4-dihydro-1H-2,1-benzothiazine 2,2-dioxide]
- inhibition of growth at 20 ppm (Leptnosphaeria nodorum): 90 to 100%
- chromatographic logP ([1]; Method C: 55° C.): 3.34
- chromatographic logP [1, 2]: 3.34
- inhibition of growth at 20 ppm (Pyricularia oryzae): 90 to 100%

SMILES: CC1(C)C(F)(F)c2ccccc2N(c2cnc3ccccc3c2)S1(=O)=O [I.163, 4,4-difluoro-3,3-dimethyl-1-(quinolin-3-yl)-3,4-dihydro-1H-2,1-benzothiazine 2,2-dioxide]
- inhibition of growth at 20 ppm (Leptnosphaeria nodorum): 90 to 100%
- chromatographic logP ([1]; Method C: 55° C.): 3.25
- inhibition of growth at 20 ppm (Pyricularia oryzae): 80 to 89%

SMILES: O=S1(=O)Nc2ccccc2CC12CC2 [III.07A]
- chromatographic logP ([1]; Method C: 55° C.): 1.49

SMILES: O=S1(=O)Cc2ccccc2N1c1cnc2c(F)cccc2c1 [I.018, 3-(2,2-dioxido-2,1-benzothiazol-1(3H)-yl)-8-fluoroquinoline]
- inhibition of growth at 20 ppm (Leptnosphaeria nodorum): 90 to 100%
- chromatographic logP ([1]; Method A: 40° C.): 2.52

SMILES: N#Cc1ccc2ncc(I)cc2c1 [II.04A]
- chromatographic logP ([1]; Method A: 40° C.): 2.5

SMILES: CC1(C)c2ccccc2N(c2cnc3c(F)cccc3c2)S1(=O)=O [I.015, 3-(3,3-dimethyl-2,2-dioxido-2,1-benzothiazol-1(3H)-yl)-8-fluoroquinoline]
- inhibition of growth at 4 ppm (Leptnosphaeria nodorum): ≥ 80%
- inhibition of growth at 20 ppm (Leptnosphaeria nodorum): 90 to 100%
- chromatographic logP ([1]; Method A: 40° C.): 3.12
- inhibition of growth at 20 ppm (Pyricularia oryzae): 90 to 100%

SMILES: CC1(C)CS(=O)(=O)N(c2cnc3ccccc3c2)c2ccccc21 [I.166, 4,4-dimethyl-1-(quinolin-3-yl)-3,4-dihydro-1H-2,1-benzothiazine 2,2-dioxide]
- chromatographic logP ([1]; Method C: 55° C.): 2.88
- inhibition of growth at 20 ppm (Pyricularia oryzae): 90 to 100%

SMILES: CC1(C)C(=O)c2ccccc2N(c2cnc3ccccc3c2)S1(=O)=O [I.156, 3,3-dimethyl-1-(quinolin-3-yl)-1H-2,1-benzothiazin-4(3H)-one 2,2-dioxide]
- inhibition of growth at 20 ppm (Leptnosphaeria nodorum): 70 to 79%
- chromatographic logP ([1]; Method C: 55° C.): 2.93
- inhibition of growth at 20 ppm (Pyricularia oryzae): 90 to 100%

SMILES: O=C1c2ccccc2N(c2cnc3ccccc3c2)S(=O)(=O)C1(Cl)Cl [I.239, 3,3-dichloro-1-(quinolin-3-yl)-1H-2,1-benzothiazin-4(3H)-one 2,2-dioxide]
- chromatographic logP ([1]; Method C: 55° C.): 3.49
- chromatographic logP [1, 2]: 3.49

SMILES: COC1N(c2cnc3c(F)cccc3c2)c2ccccc2C1(C)C (centres unmarked) [CMP1, 8-fluoro-3-(2-methoxy-3,3-dimethyl-2,3-dihydro-1H-indol-1-yl)quinoline, reference compound]
- inhibition of growth at 4 ppm (Leptnosphaeria nodorum): 0%
- inhibition of growth at 20 ppm (Leptnosphaeria nodorum): 5%
- inhibition of growth at 20 ppm (Pyricularia oryzae): 7%

SMILES: CC1(C)Cc2ccccc2NS1(=O)=O [III.06A]
- chromatographic logP ([1]; Method C: 55° C.): 1.6

SMILES: Cc1ccc2cc(I)cnc2c1F [II.03A]
- chromatographic logP ([1]; Method A: 40° C.): 3.11

SMILES: O=S1(=O)C=CCc2ccccc2N1Cc1ccccc1 [V.01, 1-benzyl-1,5-dihydro-2,1-benzothiazepine 2,2-dioxide]
- chromatographic logP ([1]; Method C: 55° C.): 6.01

SMILES: O=S1(=O)CCCc2ccccc2N1 [IIIc.02, 1,3,4,5-tetrahydro-2,1-benzothiazepine 2,2-dioxide]
- chromatographic logP ([1]; Method C: 55° C.): 1.2

SMILES: CC1Cc2ccccc2N(c2cnc3ccccc3c2)S1(=O)=O (centres unmarked) [I.158, 3-methyl-1-(quinolin-3-yl)-3,4-dihydro-1H-2,1-benzothiazine 2,2-dioxide]
- chromatographic logP ([1]; Method C: 55° C.): 2.58

SMILES: Fc1cc(Cl)cc2cc(I)cnc12 [II.09A]
- chromatographic logP ([1]; Method A: 40° C.): 3.15

SMILES: CC1(OCc2ccccc2)c2ccccc2N(c2cnc3ccccc3c2)S(=O)(=O)C1(C)C (centres unmarked) [I.250, 4-(benzyloxy)-3,3,4-trimethyl-1-(quinolin-3-yl)-3,4-dihydro-1H-2,1-benzothiazine 2,2-dioxide]
- inhibition of growth at 20 ppm (Leptnosphaeria nodorum): 90 to 100%
- chromatographic logP ([1]; Method C: 55° C.): 4.04
- inhibition of growth at 20 ppm (Pyricularia oryzae): 80 to 89%

SMILES: O=S1(=O)Cc2cc(C(F)(F)F)ccc2N1 [III.03A]
- chromatographic logP ([1]; Method A: 40° C.): 1.95

SMILES: N#Cc1cccc2cc(I)cnc12 [II.11A]
- chromatographic logP ([1]; Method A: 40° C.): 2.54

SMILES: Fc1cc2cc(I)cnc2cc1F [II.08A]
- chromatographic logP ([1]; Method A: 40° C.): 3.15

SMILES: FC(F)(F)c1cccc2cc(I)cnc12 [II.01A]
- chromatographic logP ([1]; Method A: 40° C.): 3.11

SMILES: O=S1(=O)N(Cc2ccccc2)c2ccccc2CC12CC2 [IV.01A]
- chromatographic logP ([1]; Method C: 55° C.): 3.19

SMILES: COC(=O)c1ccccc1N(c1cnc2ccccc2c1)S(C)(=O)=O [Xa.02, methyl 2-[(methylsulfonyl)(quinolin-3-yl)amino]benzoate]
- chromatographic logP ([1]; Method C: 55° C.): 2.17

SMILES: COC(=O)c1ccccc1Nc1cnc2ccccc2c1 [methyl 2-(quinolin-3-ylamino)benzoate]
- chromatographic logP ([1]; Method C: 55° C.): 2.96

SMILES: CC1Cc2ccccc2N(c2cc3ccccc3[n+]([O-])c2)S1(=O)=O (centres unmarked) [I.162, 3-methyl-1-(1-oxidoquinolin-3-yl)-3,4-dihydro-1H-2,1-benzothiazine 2,2-dioxide]
- inhibition of growth at 20 ppm (Leptnosphaeria nodorum): 90 to 100%
- chromatographic logP ([1]; Method C: 55° C.): 1.81
- inhibition of growth at 20 ppm (Pyricularia oryzae): 90 to 100%

SMILES: Fc1c(Cl)ccc2cc(I)cnc12 [II.02A]
- chromatographic logP ([1]; Method A: 40° C.): 3.37

SMILES: CC1(C)c2ccccc2N(c2cnc3ccccc3c2)S(=O)(=O)C1(C)C [I.172, 3,3,4,4-tetramethyl-1-(quinolin-3-yl)-3,4-dihydro-1H-2,1-benzothiazine 2,2-dioxide]
- inhibition of growth at 20 ppm (Leptnosphaeria nodorum): 90 to 100%
- chromatographic logP ([1]; Method C: 55° C.): 3.85
- inhibition of growth at 20 ppm (Pyricularia oryzae): 90 to 100%

SMILES: Clc1ccc2cc(I)cnc2c1Cl [II.07A]
- chromatographic logP ([1]; Method A: 40° C.): 3.83

SMILES: Fc1ccc(F)c2ncc(I)cc12 [II.06A]
- chromatographic logP ([1]; Method A: 40° C.): 2.94

SMILES: O=S1(=O)Cc2c(cccc2OC(F)(F)F)N1 [III.04A]
- chromatographic logP ([1]; Method A: 40° C.): 2.11

SMILES: Fc1cc(F)c2cc(I)cnc2c1 [II.12A]
- chromatographic logP ([1]; Method A: 40° C.): 3.31

SMILES: CC(C)(CS(=O)(=O)Nc1cnc2ccccc2c1)c1ccccc1Br [VIIIa.18, 2-(2-bromophenyl)-2-methyl-N-(quinolin-3-yl)propane-1-sulfonamide]
- chromatographic logP ([1]; Method C: 55° C.): 2.98

SMILES: Fc1cc(F)c2ncc(I)cc2c1 [II.05A]
- chromatographic logP ([1]; Method A: 40° C.): 2.88

SMILES: CC1(F)c2ccccc2N(c2cnc3c(F)c(F)ccc3c2)S(=O)(=O)C1(C)C (centres unmarked) [I.225, 1-(7,8-difluoroquinolin-3-yl)-4-fluoro-3,3,4-trimethyl-3,4-dihydro-1H-2,1-benzothiazine 2,2-dioxide]
- inhibition of growth at 20 ppm (Leptnosphaeria nodorum): 90 to 100%
- chromatographic logP ([1]; Method C: 55° C.): 3.6
- chromatographic logP [1, 2]: 3.6
- inhibition of growth at 20 ppm (Pyricularia oryzae): 90 to 100%

SMILES: CC1Cc2ccccc2NS1(=O)=O (centres unmarked) [3-methyl-3,4-dihydro-1H-2,1-benzothiazine 2,2-dioxide]
- chromatographic logP ([1]; Method C: 55° C.): 1.33

SMILES: O=S1(=O)CC(=NOCc2ccccc2)c2ccccc2N1c1cnc2ccccc2c1 [I.241, N-(benzyloxy)-1-(quinolin-3-yl)-1H-2,1-benzothiazin-4(3H)-imine 2,2-dioxide]
- chromatographic logP ([1]; Method C: 55° C.): 3.94
- chromatographic logP [1, 2]: 3.94
- inhibition of growth at 20 ppm (Pyricularia oryzae): 70 to 79%
